assay: Western blot analysis for "B" compounds; format: cell-based; conditions: read-out: Traditional Western Degradation Potency (DC50)
Method in brief: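 Compound-treated cells lysed in RIPA buffer with protease inhibitors; equal protein (BCA) run on 10% SDS-PAGE, transferred to PVDF and probed with target antibodies. Band intensities quantified by densitometry and normalized to GAPDH.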

SMILES	DC50 [nM]
O=C1CCC(N2C(=O)c3cc4c(cc3C2=O)CN(CC(=O)N2CC3(CCN(c5ccc([C@@H]6c7ccc(O)cc7CC[C@@H]6c6ccccc6)cc5)CC3)C2)C4)C(=O)N1 (mixture of isomers) [Compound B5, 2-(2,6-dioxopiperidin-3-yl)-6-(2-(7-(4-((1R,2S)-6-hydroxy-2-phenyl-1,2,3,4-tetrahydronaphthalen-1-yl)phenyl)-2,7-diazaspiro[3.5]nonan-2-yl)-2-oxoethyl)-6,7-dihydropyrrolo[3,4-f]isoindole-1,3(2H,5H)-dione]	< 10
O=C1CCC(N2C(=O)c3cc4c(cc3C2=O)CN(CC(=O)N2CCC3(CC2)CCN(c2ccc([C@@H]5c6ccc(O)cc6CC[C@@H]5c5ccccc5)cc2)CC3)C4)C(=O)N1 (mixture of isomers) [Compound B12, 2-(2,6-dioxopiperidin-3-yl)-6-(2-(9-(4-((1R,2S)-6-hydroxy-2-phenyl-1,2,3,4-tetrahydronaphthalen-1-yl)phenyl)-3,9-diazaspiro[5.5]undecan-3-yl)-2-oxoethyl)-6,7-dihydropyrrolo[3,4-f]isoindole-1,3(2H,5H)-dione]	10 to 100
C[C@H]1CC2(CCN(c3ccc([C@@H]4c5ccc(O)cc5CC[C@@H]4c4ccccc4)cc3)CC2)CN1C(=O)CN1Cc2cc3c(cc2C1)C(=O)N(C1CCC(=O)NC1=O)C3=O (mixture of isomers) [Compound B23, 2-(2,6-dioxopiperidin-3-yl)-6-(2-((S)-8-(4-((1R,2S)-6-hydroxy-2-phenyl-1,2,3,4-tetrahydronaphthalen-1-yl)phenyl)-3-methyl-2,8-diazaspiro[4.5]decan-2-yl)-2-oxoethyl)-6,7-dihydropyrrolo[3,4-f]isoindole-1,3(2H,5H)-dione]	10 to 100
O=C1CCC(N2Cc3cc4c(cc3C2=O)CN(CC2CN(CC3CCN(c5ccc([C@@H]6c7ccc(O)cc7CC[C@@H]6c6ccccc6)cc5)CC3)C2)C4=O)C(=O)N1 (stereo partly drawn) [Compound B301, 2-(2,6-dioxopiperidin-3-yl)-6-((1-((1-(4-((1R,2S)-6-hydroxy-2-phenyl-1,2,3,4-tetrahydronaphthalen-1-yl)phenyl)piperidin-4-yl)methyl)azetidin-3-yl)methyl)-2,3,6,7-tetrahydropyrrolo[3,4-f]isoindole-1,5-dione]	> 100
O=C1CCC(N2Cc3cc4c(cc3C2=O)CN(C2CN(CC3CCN(c5ccc([C@@H]6c7ccc(O)cc7CC[C@@H]6c6ccccc6)cc5)CC3)C2)C4=O)C(=O)N1 (stereo partly drawn) [Compound B302, 2-(2,6-dioxopiperidin-3-yl)-6-(1-((1-(4-((1R,2S)-6-hydroxy-2-phenyl-1,2,3,4-tetrahydronaphthalen-1-yl)phenyl)piperidin-4-yl)methyl)azetidin-3-yl)-2,3,6,7-tetrahydropyrrolo[3,4-f]isoindole-1,5-dione]	> 100
O=C1CCC(N2Cc3cc4c(cc3C2=O)CN(C2CCN(CC3CCN(c5ccc([C@@H]6c7ccc(O)cc7CC[C@@H]6c6ccccc6)cc5)CC3)CC2)C4=O)C(=O)N1 (stereo partly drawn) [Compound B303, 2-(2,6-dioxopiperidin-3-yl)-6-(1-((1-(4-((1R,2S)-6-hydroxy-2-phenyl-1,2,3,4-tetrahydronaphthalen-1-yl)phenyl)piperidin-4-yl)methyl)piperidin-4-yl)-2,3,6,7-tetrahydropyrrolo[3,4-f]isoindole-1,5-dione]	> 100
O=C1CCC(N2Cc3cc4c(cc3C2=O)C(=O)N(CC2CN(CC3CCN(c5ccc([C@@H]6c7ccc(O)cc7CC[C@@H]6c6ccccc6)cc5)CC3)C2)C4)C(=O)N1 (stereo partly drawn) [Compound B305, 2-(2,6-dioxopiperidin-3-yl)-6-((1-((1-(4-((1R,2S)-6-hydroxy-2-phenyl-1,2,3,4-tetrahydronaphthalen-1-yl)phenyl)piperidin-4-yl)mcthyl)azctidin-3-yl)methyl)-2,3,5,6-tctrahydropyrrolo[3,4-f]isoindole-1,7-dione]	> 100
Cn1cc(-c2ccc3c(c2)CC[C@H](c2ccccc2)[C@@H]3c2ccc(N3CCC4(CCN(C(=O)CN5Cc6cc7c(cc6C5)C(=O)N(C5CCC(=O)NC5=O)C7=O)CC4)CC3)cc2)cn1 (stereo partly drawn) [Compound B323, 2-(2,6-dioxopiperidin-3-yl)-6-(2-(9-(4-((1R,2S)-6-(1-methyl-1H-pyrazol-4-yl)-2-phenyl-1,2,3,4-tetrahydronaphthalen-1-yl)phenyl)-3,9-diazaspiro[5.5]undecan-3-yl)-2-oxoethyl)-6,7-dihydropyrrolo[3,4-f]isoindole-1,3(2H,5H)-dione]	> 100
O=C1CCC(N2C(=O)c3cc4c(cc3C2=O)CN(CC(=O)N2CCC3(CC2)CCN(c2ccc([C@@H]5c6ccc(-c7cn[nH]c7)cc6CC[C@@H]5c5ccccc5)cc2)CC3)C4)C(=O)N1 (stereo partly drawn) [Compound B324, 2-(2,6-dioxopiperidin-3-yl)-6-(2-oxo-2-(9-(4-((1R,2S)-2-phenyl-6-(1H-pyrazol-4-yl)-1,2,3,4-tetrahydronaphthalen-1-yl)phenyl)-3,9-diazaspiro[5.5]undecan-3-yl)ethyl)-6,7-dihydropyrrolo[3,4-f]isoindole-1,3(2H,5H)-dione]	> 100

assay: Cell growth assay (WST-8) for "B" compounds; format: cell-based; conditions: T47D cell line; read-out: Cell growth Inhibition in T47D cell line IC50
Method: Cell Growth Assay. The cells were seeded at 1500/well in 96 well plates overnight. One day after the seeding, they were treated with indicated doses of compounds respectively, 4 days after the compound treatment, 10% WST-8 reagent was added to the culture medium and incubate in a CO2 incubator at 37° C. for 2.5 hours. Before reading, the plate was mixed gently on an orbital shaker for one minute to ensure homogeneous distribution of color. The absorbance was measured of each sample using a microplate reader at a wavelength of 450 nm. The relative absorbance was calculated against the vehicle control from three individually repeats.

SMILES	IC50 [nM]
O=C1CCC(N2C(=O)c3cc4c(cc3C2=O)CN(CC(=O)N2CC3(CCN(c5ccc([C@@H]6c7ccc(O)cc7CC[C@@H]6c6ccccc6)cc5)CC3)C2)C4)C(=O)N1 (mixture of isomers) [Compound B5, 2-(2,6-dioxopiperidin-3-yl)-6-(2-(7-(4-((1R,2S)-6-hydroxy-2-phenyl-1,2,3,4-tetrahydronaphthalen-1-yl)phenyl)-2,7-diazaspiro[3.5]nonan-2-yl)-2-oxoethyl)-6,7-dihydropyrrolo[3,4-f]isoindole-1,3(2H,5H)-dione]	> 10
O=C1CCC(N2C(=O)c3cc4c(cc3C2=O)CN(CC(=O)N2CCC3(CC2)CCN(c2ccc([C@@H]5c6ccc(O)cc6CC[C@@H]5c5ccccc5)cc2)CC3)C4)C(=O)N1 (mixture of isomers) [Compound B12, 2-(2,6-dioxopiperidin-3-yl)-6-(2-(9-(4-((1R,2S)-6-hydroxy-2-phenyl-1,2,3,4-tetrahydronaphthalen-1-yl)phenyl)-3,9-diazaspiro[5.5]undecan-3-yl)-2-oxoethyl)-6,7-dihydropyrrolo[3,4-f]isoindole-1,3(2H,5H)-dione]	> 10

same assay, conditions: T47D, T47D cell line; read-out: Cell growth Inhibition in T47D cell line IC50

SMILES	IC50 [nM]
C[C@H]1CC2(CCN(c3ccc([C@@H]4c5ccc(O)cc5CC[C@@H]4c4ccccc4)cc3)CC2)CN1C(=O)CN1Cc2cc3c(cc2C1)C(=O)N(C1CCC(=O)NC1=O)C3=O (mixture of isomers) [Compound B23, 2-(2,6-dioxopiperidin-3-yl)-6-(2-((S)-8-(4-((1R,2S)-6-hydroxy-2-phenyl-1,2,3,4-tetrahydronaphthalen-1-yl)phenyl)-3-methyl-2,8-diazaspiro[4.5]decan-2-yl)-2-oxoethyl)-6,7-dihydropyrrolo[3,4-f]isoindole-1,3(2H,5H)-dione]	> 10
O=C1CC[C@H](N2Cc3cc4c(cc3C2=O)OCC2(CN(CC3CCN(c5ccc([C@@H]6c7ccc(O)cc7CC[C@@H]6c6ccccc6)cc5)CC3)C2)O4)C(=O)N1 [Compound B395, (S)-3-(1-((1-(4-((1R,2S)-6-hydroxy-2-phenyl-1,2,3,4-tetrahydronaphthalen-1-yl)phenyl)piperidin-4-yl)methyl)-6′-oxo-6′,8′-dihydro-3′H,7′H-spiro[azetidine-3,2′-[1,4]dioxino[2,3-f]isoindol]-7′-yl)piperidine-2,6-dione]	1 to 10

same assay, conditions: T47D; read-out: Cell growth Inhibition in T47D cell line IC50

SMILES	IC50 [nM]
O=C1CC[C@H](N2Cc3c(ccc4c3OC[C@H]3CN(CC5COC6(CCN(c7ccc([C@@H]8c9ccc(O)cc9CC[C@@H]8c8ccccc8)cc7)CC6)C5)CCN43)C2=O)C(=O)N1 (stereo partly drawn) [Compound B226, (3S)-3-((5aR)-7-((8-(4-((1R,2S)-6-hydroxy-2-phenyl-1,2,3,4-tetrahydronaphthalen-1-yl)phenyl)-1-oxa-8-azaspiro[4.5]decan-3-yl)methyl)-1-oxo-1,3,5,5a,6,7,8,9-octahydro-2H-pyrazino[1′,2′: 4,5][1,4]oxazino[2,3-e]isoindol-2-yl)piperidine-2,6-dione]	< 1
O=C1CCC(N2Cc3c(ccc4c3OC[C@@H]3CN(C(=O)CN5CCN(c6ccc([C@@H]7c8ccc(O)cc8CC[C@@H]7c7ccccc7)cc6)CC5)CCN43)C2=O)C(=O)N1 (stereo partly drawn) [Compound B244, 3-((S)-7-(2-(4-(4-((1R,2S)-6-hydroxy-2-phenyl-1,2,3,4-tetrahydronaphthalen-1-yl)phenyl)piperazin-1-yl)acetyl)-1-oxo-1,3,5,5a,6,7,8,9-octahydro-2H-pyrazino[1′,2′:4,5][1,4]oxazino[2,3-e]isoindol-2-yl)piperidine-2,6-dione]	< 1
O=C1CCC(N2Cc3c(ccc4c3OC[C@H]3CN(C(=O)CN5CCN(c6ccc([C@@H]7c8ccc(O)cc8CC[C@@H]7c7ccccc7)cc6)CC5)CCN43)C2=O)C(=O)N1 (stereo partly drawn) [Compound B249, 3-((R)-7-(2-(4-(4-((1R,2S)-6-hydroxy-2-phenyl-1,2,3,4-tetrahydronaphthalen-1-yl)phenyl)piperazin-1-yl)acetyl)-1-oxo-1,3,5,5a,6,7,8,9-octahydro-2H-pyrazino[1′,2′:4,5][1,4]oxazino[2,3-e]isoindol-2-yl)piperidine-2,6-dione]	< 1
O=C1CC[C@H](N2Cc3c(ccc4c3OC[C@H]3CN(CC5CC6(C5)CN(c5ccc([C@@H]7c8ccc(O)cc8CC[C@@H]7c7ccccc7)cc5)C6)CCN43)C2=O)C(=O)N1 [Compound B351, (S)-3-((R)-7-((2-(4-((1R,2S)-6-hydroxy-2-phenyl-1,2,3,4-tetrahydronaphthalen-1-yl)phenyl)-2-azaspiro[3.3]heptan-6-yl)methyl)-1-oxo-1,3,5,5a,6,7,8,9-octahydro-2H-pyrazino[1′,2′:4,5][1,4]oxazino[2,3-e]isoindol-2-yl)piperidine-2,6-dione]	1 to 10
O=C1CC[C@H](N2Cc3c(ccc4c3OC[C@H]3CN(C[C@@H]5COC6(CCN(c7ccc([C@@H]8c9ccc(O)cc9CC[C@@H]8c8ccccc8)cc7)CC6)C5)CCN43)C2=O)C(=O)N1 [Compound B396, (S)-3-((R)-7-(((R)-8-(4-((1R,2S)-6-hydroxy-2-phenyl-1,2,3,4-tetrahydronaphthalen-1-yl)phenyl)-1-oxa-8-azaspiro[4.5]decan-3-yl)methyl)-1-oxo-1,3,5,5a,6,7,8,9-octahydro-2H-pyrazino[1′,2′:4,5][1,4]oxazino[2,3-e]isoindol-2-yl)piperidine-2,6-dione]	< 1
O=C1CC[C@H](N2Cc3c(ccc4c3OC[C@H]3CN(C[C@H]5COC6(CCN(c7ccc([C@@H]8c9ccc(O)cc9CC[C@@H]8c8ccccc8)cc7)CC6)C5)CCN43)C2=O)C(=O)N1 [Compound B397, (S)-3-((R)-7-(((S)-8-(4-((1R,2S)-6-hydroxy-2-phenyl-1,2,3,4-tetrahydronaphthalen-1-yl)phenyl)-1-oxa-8-azaspiro[4.5]decan-3-yl)methyl)-1-oxo-1,3,5,5a,6,7,8,9-octahydro-2H-pyrazino[1′,2′:4,5][1,4]oxazino[2,3-e]isoindol-2-yl)piperidine-2,6-dione]	< 1

Reference: patent US20260028354A1, “TETRAHYDRONAPHTHALENE DERIVATIVES AS ESTROGEN RECEPTOR DEGRADERS” (REGENT OF THE UNIVERSITY OF MICHIGAN, priority 2022, published 2026)
